US7919517B2, “Indazole derivatives” (Kyowa Hakko Kirin Co., Ltd., priority 2003, dated 2011)
Where a name gives a salt, the structure may show the parent alone.

What was measured:
Type in all cases: cell-based
[1] = tested on: human chronic myeloid leukemia cell line K562; experiment: Cytostatic activity on leukemia cell line K562 (WST-1); conditions: Homo sapiens; 10 μmol/L, 72 hours, K562 cells; read-out: cytostatic rate K562 (%) (10 μmol/L)
Protocol: (§1) The cytostatic rates of a test compound on human acute myeloid leukemia cell lines MV-4-11 and ML-1, and human chronic myeloid leukemia cell line K562 were determined in the following manner.
(§2) Each cell was cultured using Roswell Park Memorial Institute's Medium (RPMI) 1640 (Gibco, Catalog No. 11875-093) containing 10% fetal bovine serum (Gibco, Catalog No. 10437-028) and 1% penicillin/streptomycin (1:1) (Gibco, Catalog No. 15140-122). Each 80 μL of the MV-4-11 cell having a concentration of 7.5×10^4 cells/mL (or the ML-1 cell or K562 cell having a concentration of 2.5×10^4 cells/mL) was inoculated to wells of a TC MICROWELL 96U plate (Nalge Nunc International, Catalog No. 163320) and was cultured in a 5% carbon dioxide gas incubator at 37° C. for 4 hours. As a blank, only RPMI medium (80 μL) was added to a well. Each 20 μL of a solution of the test compound in dimethyl sulfoxide (DMSO) which was prepared to make the final concentration to 10 μmol/L, was added to the MV-4-11 cell, ML-1 cell and K562 cell, respectively. Each 20 μL of DMSO was added to the control well and the blank well to […]. After adding the test compound, the cells were incubated in a 5% carbon dioxide gas incubator at 37° C. for 72 hours. After adding 20 μL of WST-1 reagent {4-[3-(4-iodophenyl)-2-(4-nitrophenyl)-2H-5-tetrazolio]-1,3-benzene disulfonate sodium salt} (Roche Diagnostics K.K., Catalog No. 1644807) diluted to 50% with RPMI medium, the cells were further incubated at 37° C. for 2 hours. Then, the absorbances at 450 nm (reference wavelength: 690 nm) were determined with a microplate spectrophotometer SPECTRA max 340PC (Molecular Devices Corporation). The relative growth (%) of a well to which the test compound had been added was determined while setting the absorbance of a well to which not the test compound but DMSO alone had been added (control) at 100% and that of a well containing RPMI medium alone at 0%. The cytostatic rate (%) of the test compound was determined by subtracting the calculated relative growth from 100.

[2] = tested on: human colon cancer cell line Colo205; experiment: Cytostatic activity on solid carcinoma cell line Colo205 (WST-1); conditions: Homo sapiens, COLO 205; 10 μmol/L, 72 hours, Colo205 cells; read-out: cytostatic rate Colo205 (%) (10 μmol/L)
Protocol: as §2
The cytostatic rate of a test compound on the human colon cancer cell line Colo205 was determined in the following manner.
The cell was cultured using Roswell Park Memorial Institute's Medium (RPMI) 1640 (Gibco, Catalog No. 11875-093) containing 10% fetal bovine serum (Gibco, Catalog No. 10437-028) and 1% penicillin/streptomycin (1:1) (Gibco, Catalog No. 15140-122). Each 80 μL of the Colo205 having a concentration of 1.25×10^4 cells/mL was inoculated to wells of a TC MICROWELL 96F plate (Nalge Nunc International, Catalog No. 167008) and was cultured in a 5% carbon dioxide gas incubator at 37° C. for 24 hours. As a blank, only RPMI (80 μL) was added to a well. Each 20 μL of a solution of the test compound in DMSO which was prepared to make the final concentration to 10 μmol/L, was added to the Colo205 cell. Each 20 μL of DMSO was added to the control well and the blank well to […]. After adding the test compound, the cell was incubated in a 5% carbon dioxide gas incubator at 37° C. for 72 hours. The cytostatic rate (%) was then determined in the same way as the leukemia cell lines.

[3] = tested on: human acute myeloid leukemia cell line MV-4-11; experiment: Cytostatic activity on leukemia cell line MV-4-11 (WST-1); conditions: Homo sapiens, MV4-11; 10 μmol/L, 72 hours, MV-4-11 cells; read-out: cytostatic rate MV-4-11 (%) (10 μmol/L)
Protocol: as §1, §2

[4] = tested on: human acute myeloid leukemia cell line ML-1; experiment: Cytostatic activity on leukemia cell line ML-1 (WST-1); conditions: Homo sapiens, ML1; 10 μmol/L, 72 hours, ML-1 cells; read-out: cytostatic rate ML-1 (%) (10 μmol/L)
Protocol: as §1, §2

| Compound | inhibition at 10 µM [1] | inhibition at 10 µM [2] | inhibition at 10 µM [3] | inhibition at 10 µM [4] |
| --- | --- | --- | --- | --- |
| O=C(c1ccccc1)N1CCN(C(=O)c2ccc(/C=C/c3n[nH]c4ccccc34)cc2)CC1 [Compound 46, (E)-1-{4-[2-(1H-indazol-3-yl)vinyl]benzoyl}-4-benzoylpiperazine] | 93% | 87% | 98% | 82% |
| O=C(NCCN1CCOCC1)c1ccc(/C=C/c2n[nH]c3ccccc23)cc1 [Compound 10, (E)-N-(2-morpholinoethyl)-4-[2-(1H-indazol-3-yl)vinyl]benzamide] | 99% | 41% | 91% | 83% |
| CCN(CC)C(=O)c1ccc(/C=C/c2n[nH]c3ccccc23)cc1 [Compound 15, (E)-N,N-Diethyl-4-[2-(1H-indazol-3-yl)vinyl]benzamide hydrochloride] | 100% | 92% | 91% | 94% |
| CC1(C(=O)N2CCN(C(=O)c3ccc(/C=C/c4n[nH]c5ccccc45)cc3)CC2)CC1 [Compound 77, (E)-4-(1-methylcyclopropanecarbonyl)-1-{4-[2-(1H-indazol-3-yl)vinyl]benzoyl}piperazine] | 95% | 86% | 98% | 80% |
| COCCN1CCN(C(=O)c2ccc(/C=C/c3n[nH]c4ccccc34)cc2)CC1=O [Compound 134, (E)-4-{4-[2-(1H-indazol-3-yl)vinyl]benzoyl}-1-(2-methoxyethyl)piperazin-2-one hydrochloride] | 91% | 91% | 100% | 88% |
| CCN(CC)C(=O)C1CCN(C(=O)c2ccc(/C=C/c3n[nH]c4ccccc34)cc2)CC1 [Compound 81, (E)-N,N-diethyl-1-{4-[2-(1H-indazol-3-yl)vinyl]benzoyl}piperidine-4-carboxamide] | 95% | 85% | 98% | 77% |
| C[C@H]1CN(C(=O)c2ccc(/C=C/c3n[nH]c4ccccc34)cc2)CCN1 [Compound 101, (S)-(E)-1-{4-[2-(1H-indazol-3-yl)vinyl]benzoyl}-3-methylpiperazine dihydrochloride] | 92% | 87% | 99% | 77% |
| CS(=O)(=O)N1CCN(C(=O)c2ccc(/C=C/c3n[nH]c4ccccc34)cc2)CC1 [Compound 47, (E)-1-{4-[2-(1H-indazol-3-yl)vinyl]benzoyl}-4-(methanesulfonyl)piperazine] | 88% | 91% | 97% | 88% |
| CC(C)(CO)C(=O)N1CCN(C(=O)c2ccc(/C=C/c3n[nH]c4ccccc34)cc2)CC1 [Compound 72, (E)-4-(3-hydroxy-2,2-dimethylpropionyl)-1-{4-[2-(1H-indazol-3-yl)vinyl]benzoyl}piperazine] | 95% | 93% | 100% | 80% |
| NC1CCN(C(=O)c2ccc(/C=C/c3n[nH]c4ccccc34)cc2)C1 (stereo not drawn) [Compound 122, (E)-1-{4-[2-(1H-indazol-3-yl)vinyl]benzoyl}-3-aminopyrrolidine dihydrochloride] | 93% | 89% | 98% | 79% |
| O=C(c1ccc(/C=C/c2n[nH]c3ccccc23)cc1)N1CCN(O)CC1 [Compound 147, (E)-4-Hydroxy-1-{4-[2-(1H-indazol-3-yl)vinyl]benzoyl}piperazine] | 77% | 83% | 99% | 89% |
| CC(=O)N(C)CC(=O)N1CCN(C(=O)c2ccc(/C=C/c3n[nH]c4ccccc34)cc2)CC1 [Compound 138, (E)-4-(N-acetyl-N-methylaminoacetyl)-1-{4-[2-(1H-indazol-3-yl)vinyl]benzoyl}piperazine] | 94% | 91% | 99% | 88% |
| O=C1CN(C(=O)c2ccc(/C=C/c3n[nH]c4ccccc34)cc2)CCN1 [Compound 89, (E)-4-{4-[2-(1H-indazol-3-yl)vinyl]benzoyl}piperazin-2-one] | 61% | 92% | 98% | 86% |
| CCOCC(=O)N1CCN(C(=O)c2ccc(/C=C/c3n[nH]c4ccccc34)cc2)CC1 [Compound 128, (E)-4-ethoxyacetyl-1-{4-[2-(1H-indazol-3-yl)vinyl]benzoyl}piperazine] | 87% | 88% | 98% | 79% |
| CC(C)N1CCN(C(=O)c2ccc(/C=C/c3n[nH]c4ccccc34)cc2)CC1 [Compound 107, (E)-1-{4-[2-(1H-indazol-3-yl)vinyl]benzoyl}-4-isopropylpiperazine hydrochloride] | 91% | 84% | 98% | 77% |
| CC(C)(O)C(=O)N1CCN(C(=O)c2ccc(/C=C/c3n[nH]c4ccccc34)cc2)CC1 [Compound 68, (E)-4-(2-methyl-2-hydroxypropionyl)-1-{4-[2-(1H-indazol-3-yl)vinyl]benzoyl}piperazine] | 91% | 90% | 97% | 79% |
| COC(=O)N1CCN(C(=O)c2ccc(/C=C/c3n[nH]c4ccccc34)cc2)CC1 [Compound 75, (E)-4-methoxycarbonyl-1-{4-[2-(1H-indazol-3-yl)vinyl]benzoyl}piperazine hydrochloride] | 85% | 88% | 99% | 88% |
| CC(C)(C)OC(=O)NN1CCN(C(=O)c2ccc(/C=C/c3n[nH]c4ccccc34)cc2)CC1 [Compound 148, (E)-1-{4-[2-(1H-indazol-3-yl)vinyl]benzoyl}-4-(tert-butyloxycarbonylamino)piperazine] | 91% | 83% | 98% | 81% |
| O=C(c1ccc(/C=C/c2n[nH]c3ccccc23)cc1)N1CCN(C(=O)[C@H]2CCNC2)CC1 [Compound 124, (S)-(E)-1-{4-[2-(1H-indazol-3-yl)vinyl]benzoyl}-4-(pyrrolidin-3-ylcarbonyl)piperazine dihydrochloride] | 94% | 87% | 98% | 83% |
| N[C@H]1CCN(C(=O)c2ccc(/C=C/c3n[nH]c4ccccc34)cc2)C1 [Compound 159, (S)-(E)-1-{4-[2-(1H-indazol-3-yl)vinyl]benzoyl}-3-aminopyrrolidine] | 93% | 92% | 99% | 86% |
| CN(C)C(=O)NC1CCN(C(=O)c2ccc(/C=C/c3n[nH]c4ccccc34)cc2)CC1 [Compound 132, (E)-4-dimethylcarbamoylamino-1-{4-[2-(1H-indazol-3-yl)vinyl]benzoyl}piperidine] | 95% | 91% | 100% | 88% |
